Experimental data from patent US10815235B2, “Polycyclic compounds and uses thereof” (priority 2017, dated 2020).
Where two headings read alike, the source gives them in different places.

Legend:
[1] = biological target: Serotonin 5-HT1B receptor (Homo sapiens, UniProt P28222); assay: GTPγS Scintillation Proximity Assay, agonist and antagonist mode; format: biochemical
Method: (§1) Antagonist and agonist activities were determined using a GTPγS Scintillation Proximity Assay. The assay was prepared as follows: Membrane extracts were prepared from recombinant human Dopamine D2L, D3; Serotonin 5-HT1A, 5-HT1B, 5-HT1D and 5-HT1F receptors.
(§2) Samples were tested by proprietary biological assays by Ogeda S. A., Euroscreen FAST Business Unit, Rue Adrienne Bolland, 47 B-6041 Gosselies, Belgium. Each protein assay was prepared using the following conditions.
5-HT1B • Assay buffer: 20 mM HEPES pH 7.4; 100 mM NaCl, 10 μg/ml saponin, 3 mM MgCl2; • Membranes: recombinant 5-HT1B membrane extracts thawed on ice and diluted in assay buffer to give 1 mg/ml (10 μg/well) and kept on ice; • GDP: diluted in assay buffer to give a 3 μM final assay concentration; • Beads: PVT-WGA (Perkin Elmer, RPNQ001), diluted in assay buffer at 50 mg/ml (0.5 mg/well); and • GTPγ^35S: (PerkinElmer NEG030X), diluted in assay buffer to give 0.1 nM.
(§3) Membranes were mixed with GDP (volume:volume 1:1) and incubated for at least 15 min on ice. In parallel, GTPγ[^35S] is mixed with the beads (volume:volume 1:1) just before starting the reaction.
(§4) To determine agonist activity, the following reagents were added in the wells of an Optiplate (Perkin Elmer): 50 μL of test or reference ligand, 10 μL of assay buffer, 20 μl of the membranes:GDP mix, and 20 μL of the GTPγ[^35S]:beads mix. EC50 values were used to determine whether a compound acted as an agonist.
(§5) To determine antagonist activity, the following reagents were added in the wells of an Optiplate (Perkin Elmer): 50 μL of test or reference ligand, 20 μL of the membranes:GDP mix, then the plate is incubated 15 minutes at room temperature. After incubation, 10 μL of reference agonist at historical EC80 (final concentration) was added, followed by 20 μL of the GTPγ[^35S]:beads mix.
(§6) The plates were covered with a top seal, mixed on an orbital shaker for 2 min, and then incubated for 1 hour at room temperature. Then the plates were centrifuged for 10 min at 2000 rpm, incubated at room temperature 1 hour and counted for 1 min/well with a PerkinElmer TopCount reader. IC50 values were used to determine whether a compound acted as an antagonist.

[2] = biological target: Serotonin 5-HT1D receptor (Homo sapiens, UniProt P28221); assay: as above; format: biochemical
Method: as §1, §2
5-HT1D • Assay buffer: 20 mM HEPES pH 7.4; 200 mM NaCl, 10 μg/ml saponin, 3 mM MgCl2; • Membranes: recombinant 5-HT1D membrane extracts thawed on ice and diluted in assay buffer to give […] and kept on ice; • GDP: diluted in assay buffer to give a 30 μM working solution (3 μM final concentration); • Beads: PVT-WGA (Perkin Elmer, RPNQ001), diluted in assay buffer at 50 mg/ml (0.5 mg/10 μl); and • GTPγ^35S: (PerkinElmer NEG030X), diluted in assay buffer to give 0.1 nM.
as §3, §4, §5, §6

Adrenergic α1A receptor = biological target: T1, Adrenergic α1A receptor (Homo sapiens, UniProt P35348); assay: IPOne HTRF assay, agonist and antagonist mode; format: cell-based
T1 construct: expressed in transfected cells; host or cells: CHO-K1
T1 sequence (P35348 1-466): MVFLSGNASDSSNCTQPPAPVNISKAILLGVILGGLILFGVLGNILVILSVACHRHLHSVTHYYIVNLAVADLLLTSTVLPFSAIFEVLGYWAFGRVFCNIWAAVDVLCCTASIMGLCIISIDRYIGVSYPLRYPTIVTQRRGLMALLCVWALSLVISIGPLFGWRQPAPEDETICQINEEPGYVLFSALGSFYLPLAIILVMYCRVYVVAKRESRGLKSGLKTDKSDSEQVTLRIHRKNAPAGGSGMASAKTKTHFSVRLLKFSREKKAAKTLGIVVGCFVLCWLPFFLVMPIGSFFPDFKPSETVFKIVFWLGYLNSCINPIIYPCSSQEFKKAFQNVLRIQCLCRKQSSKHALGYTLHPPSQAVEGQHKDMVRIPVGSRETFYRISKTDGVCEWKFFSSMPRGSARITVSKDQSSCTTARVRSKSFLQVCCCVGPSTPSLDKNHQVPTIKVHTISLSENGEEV
Method: (§7) Antagonist and agonist activities were determined using an IPOne […] HTRF assay. The assay was prepared as follows: CHO-K1 cells expressing human recombinant Adrenergic α1A, Serotonin 5-HT2A, and 5-HT2B receptors grown to mid-log phase in culture media without antibiotics were detached with PBS-EDTA, centrifuged and resuspended in medium without antibiotics buffer. 20,000 cells were distributed in a 96 well plate and incubated overnight at 37° C. with 5% CO2.
(§8) To analyze agonist activity, the medium was removed and 20 μl of assay buffer plus 20 μl of test compound or reference agonist were added in each well. The plate was incubated for 60 min. at 37° C. with 5% CO2. EC50 values were used to determine whether a compound acted as an agonist.
(§9) To analyze antagonist activity, 20 μl of test compound or reference antagonist was added and the plate is incubated for 15 min. at 37° C. in a humidified atmosphere of 95% air with 5% CO2, then 20 μl of reference agonist at a final concentration corresponding to the historical EC80 is added. The plate is incubated for 60 min. at 37° C. with 5% CO2. IP1-D2 reagent and anti-IP1 cryptate reagents are then dispensed in the wells and IP1 concentrations are then measured following the manufacturer recommendations. IC50 values were used to determine whether a compound acted as an antagonist.

[3] = biological target: T2, Serotonin 5-HT2A receptor (Homo sapiens, UniProt P28223); assay: IPOne HTRF assay, agonist and antagonist mode; format: cell-based
T2 construct: expressed in transfected cells; host or cells: CHO-K1
Method: as §7, §8, §9

[4] = biological target: T3, Serotonin 5-HT2B receptor (Homo sapiens, UniProt P41595); assay: IPOne HTRF assay, agonist and antagonist mode; format: cell-based
T3 construct: expressed in transfected cells; host or cells: CHO-K1
Method: as §7, §8, §9

[5] = Antagonist Activity (IC50), 5-HT1B, membrane extracts, vs reference agonist at EC80
[6] = IC50 value for the Serotonin 5-HT1B receptor, antagonist mode, bound stated
[7] = Antagonist Activity (IC50), 5-HT1D, membrane extracts, vs reference agonist at EC80
[8] = IC50 value for the Serotonin 5-HT1D receptor, antagonist mode, bound stated
[9] = Antagonist Activity (IC50), α1A, CHO-K1 cells, vs reference agonist at EC80
[10] = IC50 value for the Adrenergic α1A receptor, antagonist mode, bound stated
[11] = CHO-K1 cells, vs reference agonist at EC80, read-out: Antagonist Activity (IC50), 5-HT2A
[12] = CHO-K1 cells, read-out: Agonist Activity (EC50), 5-HT2A
[13] = agonist mode, bound stated, read-out: EC50 value for the Serotonin 5-HT2A receptor
[14] = antagonist mode, bound stated, read-out: IC50 value for the Serotonin 5-HT2A receptor
[15] = CHO-K1 cells, vs reference agonist at EC80, read-out: Antagonist Activity (IC50), 5-HT2B
[16] = antagonist mode, bound stated, read-out: IC50 value for the Serotonin 5-HT2B receptor

Serotonin 5-HT1B receptor, sequence (P28222 whole entry): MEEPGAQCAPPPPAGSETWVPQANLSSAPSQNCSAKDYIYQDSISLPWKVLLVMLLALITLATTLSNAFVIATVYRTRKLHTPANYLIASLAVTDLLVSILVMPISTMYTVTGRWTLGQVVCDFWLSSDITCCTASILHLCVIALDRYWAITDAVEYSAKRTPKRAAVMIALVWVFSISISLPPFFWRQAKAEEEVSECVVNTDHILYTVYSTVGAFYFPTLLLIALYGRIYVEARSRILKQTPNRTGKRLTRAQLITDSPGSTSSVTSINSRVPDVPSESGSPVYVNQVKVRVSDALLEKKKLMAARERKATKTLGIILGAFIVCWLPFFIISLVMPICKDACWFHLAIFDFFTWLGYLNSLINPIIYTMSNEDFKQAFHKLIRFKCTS
Serotonin 5-HT1D receptor, sequence (P28221 whole entry): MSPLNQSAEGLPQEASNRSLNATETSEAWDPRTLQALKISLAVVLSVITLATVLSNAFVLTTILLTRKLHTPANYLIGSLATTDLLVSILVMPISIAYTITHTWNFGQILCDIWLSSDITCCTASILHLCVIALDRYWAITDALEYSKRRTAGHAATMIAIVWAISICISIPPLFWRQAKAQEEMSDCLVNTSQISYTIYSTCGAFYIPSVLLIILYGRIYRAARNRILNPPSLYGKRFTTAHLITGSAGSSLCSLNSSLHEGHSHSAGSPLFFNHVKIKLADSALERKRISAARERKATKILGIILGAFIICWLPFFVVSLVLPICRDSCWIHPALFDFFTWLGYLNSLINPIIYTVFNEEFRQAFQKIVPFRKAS
T2 sequence (P28223 whole entry): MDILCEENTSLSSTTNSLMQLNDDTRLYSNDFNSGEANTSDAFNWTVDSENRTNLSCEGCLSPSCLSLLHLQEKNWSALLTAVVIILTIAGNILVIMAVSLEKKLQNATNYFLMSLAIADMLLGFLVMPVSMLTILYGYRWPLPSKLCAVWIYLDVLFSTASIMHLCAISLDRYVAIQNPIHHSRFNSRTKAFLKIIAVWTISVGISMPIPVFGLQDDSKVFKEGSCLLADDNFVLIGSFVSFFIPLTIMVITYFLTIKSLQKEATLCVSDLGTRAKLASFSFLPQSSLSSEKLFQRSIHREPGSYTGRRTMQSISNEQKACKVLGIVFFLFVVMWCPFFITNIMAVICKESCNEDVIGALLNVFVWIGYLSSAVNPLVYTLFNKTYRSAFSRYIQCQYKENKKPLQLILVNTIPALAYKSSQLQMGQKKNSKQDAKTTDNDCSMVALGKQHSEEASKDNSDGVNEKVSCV
T3 sequence (P41595 whole entry): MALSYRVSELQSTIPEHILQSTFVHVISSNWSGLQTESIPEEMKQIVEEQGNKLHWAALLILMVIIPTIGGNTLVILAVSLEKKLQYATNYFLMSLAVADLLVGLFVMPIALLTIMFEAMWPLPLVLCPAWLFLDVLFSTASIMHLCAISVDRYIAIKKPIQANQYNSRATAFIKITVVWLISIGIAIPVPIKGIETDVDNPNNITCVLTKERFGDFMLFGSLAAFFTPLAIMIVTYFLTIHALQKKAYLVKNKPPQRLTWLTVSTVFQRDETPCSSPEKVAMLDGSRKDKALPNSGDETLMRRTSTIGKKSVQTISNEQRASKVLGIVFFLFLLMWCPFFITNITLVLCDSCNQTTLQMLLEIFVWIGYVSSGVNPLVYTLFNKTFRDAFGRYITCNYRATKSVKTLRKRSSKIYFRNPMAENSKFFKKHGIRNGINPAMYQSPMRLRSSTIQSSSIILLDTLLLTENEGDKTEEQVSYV

| Compound | IC50 [1, 5] | IC50 [1, 6] | IC50 [2, 7] | IC50 [2, 8] | IC50 (Adrenergic α1A receptor; [9]) | IC50 (Adrenergic α1A receptor; [10]) | IC50 [3, 11] | EC50 [3, 12] | EC50 [3, 13] | IC50 [3, 14] | IC50 [4, 15] | IC50 [4, 16] | further results |
| --- | --- | --- | --- | --- | --- | --- | --- | --- | --- | --- | --- | --- | --- |
| CCN(CC)C(=O)N[C@H]1C[C@@H]2c3cccc4[nH]c(Br)c(c34)C[C@H]2N(C)C1 [Compound A8H, 3-((6aR,9S, 10aR)-5-bromo-7-methyl-4,6,6a,7,8,9,10,10a-octahydroindolo[4,3-fg]quinolin-9-yl)-1,1-diethylurea] | 410 nM | < 1000 nM | 8 nM | < 1000 nM | 14 nM | < 1000 nM | 14 nM | 6.9 nM | < 1000 nM | < 1000 nM | 52 nM | – | EC50 ([4]; agonist mode, bound stated): < 1000 nM |
| CCN(CC(F)(F)F)C(=O)N[C@H]1C[C@@H]2c3cccc4[nH]c(C5CC5)c(c34)C[C@H]2N(C)C1 [Compound A17H, 3-((6aR,9S,10aR)-5-cyclopropyl-7-methyl-4,6,6a,7,8,9,10,10a-octahydroindolo[4,3-fg]quinolin-9-yl)-1-ethyl-1-(2,2,2-trifluoroethyl)urea] | – | – | 50 nM | < 1000 nM | 13 nM | < 1000 nM | 11 nM | – | – | < 1000 nM | 25 nM | < 1000 nM | – |
| CCN(CC(F)(F)F)C(=O)N[C@H]1C[C@@H]2c3cccc4[nH]c(C(F)(F)F)c(c34)C[C@H]2N(C)C1 [Compound A16H, 1-ethyl-3-((6aR,9S,10aR)-7-methyl-5-(trifluoromethyl)-4,6,6a,7,8,9,10,10a-octahydroindolo[4,3-fg]quinolin-9-yl)-1-(2,2,2-trifluoroethyl)urea] | – | < 1000 nM | – | < 1000 nM | – | < 1000 nM | – | – | – | – | – | – | IC50 ([1]; membrane extracts, vs reference agonist at EC80, read-out: Antagonist Activity (IC50), 5-HT1B): 340 nM; IC50 ([2]; membrane extracts, vs reference agonist at EC80, read-out: Antagonist Activity (IC50), 5-HT1D): 14 nM; IC50 (Adrenergic α1A receptor; CHO-K1 cells, vs reference agonist at EC80, read-out: Antagonist Activity (IC50), α1A): 15 nM; IC50 ([3]; Antagonist Activity (IC50), 5-HT2A, CHO-K1 cells, vs reference agonist at EC80): 16 nM; IC50 ([3]; IC50 value for the Serotonin 5-HT2A receptor, antagonist mode, bound stated): < 1000 nM; IC50 ([4]; Antagonist Activity (IC50), 5-HT2B, CHO-K1 cells, vs reference agonist at EC80): 16 nM; IC50 ([4]; IC50 value for the Serotonin 5-HT2B receptor, antagonist mode, bound stated): < 1000 nM |
| CCN(CC)C(=O)N[C@H]1C[C@@H]2c3cccc4[nH]c(C(F)(F)F)c(c34)C[C@H]2N(C)C1 [Compound A9H, 1,1-diethyl-3-((6aR,9S,10aR)-7-methyl-5-(trifluoromethyl)-4,6,6a,7,8,9,10,10a-octahydroindolo[4,3-fg]quinolin-9-yl)urea] | 110 nM | < 1000 nM | 10 nM | < 1000 nM | 9.1 nM | < 1000 nM | 110 nM | 12 nM | < 1000 nM | < 1000 nM | 23 nM | < 1000 nM | – |
| CC[C@@H](CO)NC(=O)[C@@H]1C[C@@H]2c3cccc4c3c(c(C3CC3)n4C)C[C@H]2N(C)C1 [Compound D13H, (6aR,9R,10aR)-5-cyclopropyl-N—((S)-1-hydroxybutan-2-yl)-4,7-dimethyl-4,6,6a,7,8,9,10,10a-octahydroindolo[4,3-fg]quinoline-9-carboxamide] | – | – | – | – | – | – | 74 nM | – | – | < 1000 nM | 3.4 nM | < 1000 nM | EC50 ([1]; Agonist Activity (EC50), 5-HT1B, membrane extracts): 430 nM; EC50 ([1]; EC50 value for the Serotonin 5-HT1B receptor, agonist mode, bound stated): < 1000 nM; EC50 ([2]; Agonist Activity (EC50), 5-HT1D, membrane extracts): 11 nM; EC50 ([2]; EC50 value for the Serotonin 5-HT1D receptor, agonist mode, bound stated): < 1000 nM |
